Results from US20140328809A1, “METHODS OF INDUCING CHONDROGENESIS IN MESENCHYMAL STEM CELLS USING SYNTHETIC TRITERPENOIDS” (TRUSTEES OF DARTMOUTH COLLEGE, priority 2011, published 2014).

Assays:
SOX-9 = test: Quantitative RT-PCR analysis on calvaria: SOX-9; type: cell-based, mouse; conditions: 7 days of culture, normalized to control = 1.00
Description: (§1) All chemicals were from Sigma-Aldrich. Primers for RT-PCR were from Applied Biosystems. The isolation of calvaria was essentially performed as described previously (Garrett, 2003; Garret et al., 2003). The calvaria were cultured in Biggers, Gwatkins, Judah medium supplemented with 1 mg/mL of bovine serum albumin (Cohn fraction V), 100 U/mL each of penicillin/streptomycin, and 0.292 mg/mL of glutaimine. On Day 1, the calvaria were treated with CDDO-Im or CDDO-EA. On Day 4, the medium was replaced with fresh medium, again containing either CDDO-Im or CDDO-EA. On Day 7, the calvaria were collected and either stored at −80° C. for further RNA analysis or fixed in 10% buffered formalin for 24 h and transferred to 80% ethanol for histological analysis.
(§2) After 7 days of culture, RNA was isolated from the calvaria and quantitative RT-PCR analysis was performed for more than 15 different markers including: SOX9 (a transcription factor specific for cartilage), collagen type II (alpha 1), all three isoforms of TGF-β, BMPs 2 and 4, BMP receptor II, Smads 3, 4, 6, and 7, tissue inhibitors of metalloproteinases (TIMP-1 and TIMP-2), and matrix metalloproteinase-9 (MMP-9). […] Both triterpenoids are strong inhibitors of the expression of MMP-9; CDDO-EA (200 nM), caused almost 80% inhibition of the expression of this metalloproteinase, which is known to be involved in the degradation of cartilage (Shinoda et al., 2008).

Col II alpha1 = test: Quantitative RT-PCR analysis on calvaria: Col II alpha1; type: cell-based, mouse; conditions: 7 days of culture, normalized to control = 1.00
Description: as §1, §2

TGF-β1 = test: Quantitative RT-PCR analysis on calvaria: TGF-β1; type: cell-based, mouse; conditions: 7 days of culture, normalized to control = 1.00
Description: as §1, §2

TGF-β2 = test: Quantitative RT-PCR analysis on calvaria: TGF-β2; type: cell-based, mouse; conditions: 7 days of culture, normalized to control = 1.00
Description: as §1, §2

TGF-β3 = test: Quantitative RT-PCR analysis on calvaria: TGF-β3; type: cell-based, mouse; conditions: 7 days of culture, normalized to control = 1.00
Description: as §1, §2

BMP-2 = test: Quantitative RT-PCR analysis on calvaria: BMP-2; type: cell-based, mouse; conditions: 7 days of culture, normalized to control = 1.00
Description: as §1, §2

BMP-4 = test: Quantitative RT-PCR analysis on calvaria: BMP-4; type: cell-based, mouse; conditions: 7 days of culture, normalized to control = 1.00
Description: as §1, §2

BMPRII = test: Quantitative RT-PCR analysis on calvaria: BMPRII; type: cell-based, mouse; conditions: 7 days of culture, normalized to control = 1.00
Description: as §1, §2

Smad3 = test: Quantitative RT-PCR analysis on calvaria: Smad3; type: cell-based, mouse; conditions: 7 days of culture, normalized to control = 1.00
Description: as §1, §2

Smad4 = test: Quantitative RT-PCR analysis on calvaria: Smad4; type: cell-based, mouse; conditions: 7 days of culture, normalized to control = 1.00
Description: as §1, §2

Smad6 = test: Quantitative RT-PCR analysis on calvaria: Smad6; type: cell-based, mouse; conditions: 7 days of culture, normalized to control = 1.00
Description: as §1, §2

Smad7 = test: Quantitative RT-PCR analysis on calvaria: Smad7; type: cell-based, mouse; conditions: 7 days of culture, normalized to control = 1.00
Description: as §1, §2

TIMP-1 = test: Quantitative RT-PCR analysis on calvaria: TIMP-1; type: cell-based, mouse; conditions: 7 days of culture, normalized to control = 1.00
Description: as §1, §2

TIMP-2 = test: Quantitative RT-PCR analysis on calvaria: TIMP-2; type: cell-based, mouse; conditions: 7 days of culture, normalized to control = 1.00
Description: as §1, §2

MMP-9 = test: Quantitative RT-PCR analysis on calvaria: MMP-9; type: cell-based, mouse; conditions: 7 days of culture, normalized to control = 1.00
Description: as §1, §2

newborn mouse calvaria = test: Histological analysis (toluidine blue) of chondrogenesis in newborn mouse calvarial organ cultures; type: cell-based; conditions: 200 nM, 7 days, FIG. 1a, at least 3 sets of replicate experiments
Description: as §1
(§3) After fixation for 24 h, the calvaria were decalcified in EDTA, embedded in paraffin, and cut into 4 μm sections. The sections were stained either with modified hematoxylin and eosin or with toluidine blue (1% in 70% ethanol for 20 min, followed by destaining in 70%, 90%, and 100% ethanol for 15 seconds), placed in xylene twice, and then mounted (Garret, 2003). Procedures for immunofluroescence were performed essentially as previously described (Medici et al., 2010). […]

[1] = tested on: collagen type II (COL2A1); test: Immunohistochemical analysis of collagen type II in calvaria; type: cell-based, mouse; conditions: 200 nM, FIG. 1b
Description: as §1, §3

SOX9 = test: Western blot of chondrocyte marker SOX9 in bone marrow-derived MSCs; type: cell-based, human; conditions: 100 nM for 7 days; MSCs in chondrogenic culture medium; not detectable in control
Description: (§4) Human bone marrow-derived stromal cells (ScienCell Research Laboratories), which contain a population of responsive mesenchymal stem cells, were grown in mesenchymal stem cell medium (ScienCell Research Laboratories). MSCs were serum-starved 24 hours prior to all experimental conditions. The synthesis of the synthetic triterpenoids, CDDO-Im and CDDO-EA, have been previously described (Sporn et al., 2011).
(§5) For directed chondrocytic differentiation, MSCs were grown in StemPro chondrogenic culture medium (Invitrogen) prepared by the technique of Kassem (2004), which is incorporated herein by reference. See also Medici et al. (2010), which is also incorporated herein by reference. CDDO-Im and CDDO-EA were added to the cultures at a concentration of 100 nM for 7 days. Western blot analysis was performed using the following antibodies at concentrations (and using protocols) recommended by the respective manufacturers: SOX9, COL2A1 (Santa Cruz Biotechnology), Aggrecan (Abcam), β-actin (Sigma-Aldrich). β-actin was used as a loading control. HRP-conjugated IgG TrueBlot reagents (eBioscience) were used at a dilution of 1:1000.

COL2A1 = test: Western blot of chondrocyte marker COL2A1 in bone marrow-derived MSCs; type: cell-based, human; conditions: 100 nM for 7 days; MSCs in chondrogenic culture medium; not detectable in control
Description: as §4, §5

Aggrecan = test: Western blot of chondrocyte marker Aggrecan in bone marrow-derived MSCs; type: cell-based, human; conditions: 100 nM for 7 days; MSCs in chondrogenic culture medium; not detectable in control
Description: as §4, §5

`CC1(C)CC[C@]2(C(=O)n3ccnc3)CC[C@]3(C)[C@H](C(=O)C=C4[C@@]5(C)C=C(C#N)C(=O)C(C)(C)[C@@H]5CC[C@]43C)[C@@H]2C1` [CDDO-Im, CDDO-Imidazolide] was tested, and the “SOX-9 expression (quantitative RT-PCR)” value (SOX-9; 50 nM) was 1.26 ± 0.08, the “SOX-9 expression (quantitative RT-PCR)” value (SOX-9; 200 nM) was 1.33 ± 0.05 and the “SOX-9 expression (quantitative RT-PCR)” value (SOX-9; 500 nM) was 1.83 ± 0.13. For the same compound, the “Col II alpha1 expression (quantitative RT-PCR)” value (“Col II alpha1 expression” below) (Col II alpha1; 50 nM) was 1.45 ± 0.09, the “Col II alpha1 expression” value (Col II alpha1; 200 nM) was 1.32 ± 0.23 and the “Col II alpha1 expression” value (Col II alpha1; 500 nM) was 1.72 ± 0.39. The “TGF-β1 expression (quantitative RT-PCR)” value (TGF-β1; 50 nM) was 0.96 ± 0.07, the “TGF-β1 expression (quantitative RT-PCR)” value (TGF-β1; 200 nM) was 1.08 ± 0.12 and the “TGF-β1 expression (quantitative RT-PCR)” value (TGF-β1; 500 nM) was 1.46 ± 0.12. For the same compound, the “TGF-β2 expression (quantitative RT-PCR)” value (TGF-β2; 50 nM) was 1.17 ± 0.05, the “TGF-β2 expression (quantitative RT-PCR)” value (TGF-β2; 200 nM) was 1.15 ± 0.09 and the “TGF-β2 expression (quantitative RT-PCR)” value (TGF-β2; 500 nM) was 1.17 ± 0.10. For the same compound, the “TGF-β3 expression (quantitative RT-PCR)” value (TGF-β3; 50 nM) was 1.30 ± 0.07, the “TGF-β3 expression (quantitative RT-PCR)” value (TGF-β3; 200 nM) was 1.52 ± 0.16 and the “TGF-β3 expression (quantitative RT-PCR)” value (TGF-β3; 500 nM) was 1.66 ± 0.13. For the same compound, the “BMP-2 expression (quantitative RT-PCR)” value (BMP-2; 50 nM) was 1.17 ± 0.07, the “BMP-2 expression (quantitative RT-PCR)” value (BMP-2; 200 nM) was 1.60 ± 0.19 and the “BMP-2 expression (quantitative RT-PCR)” value (BMP-2; 500 nM) was 3.14 ± 0.53. For the same compound, the “BMP-4 expression (quantitative RT-PCR)” value (BMP-4; 50 nM) was 0.97 ± 0.05, the “BMP-4 expression (quantitative RT-PCR)” value (BMP-4; 200 nM) was 0.98 ± 0.06 and the “BMP-4 expression (quantitative RT-PCR)” value (BMP-4; 500 nM) was 1.35 ± 0.22. The “BMPRII expression (quantitative RT-PCR)” value (BMPRII; 50 nM) was 1.09 ± 0.06, the “BMPRII expression (quantitative RT-PCR)” value (BMPRII; 200 nM) was 1.22 ± 0.11 and the “BMPRII expression (quantitative RT-PCR)” value (BMPRII; 500 nM) was 1.46 ± 0.14. The “Smad3 expression (quantitative RT-PCR)” value (Smad3; 50 nM) was 0.97 ± 0.07, the “Smad3 expression (quantitative RT-PCR)” value (Smad3; 200 nM) was 0.90 ± 0.05 and the “Smad3 expression (quantitative RT-PCR)” value (Smad3; 500 nM) was 1.35 ± 0.19. For the same compound, the “Smad4 expression (quantitative RT-PCR)” value (Smad4; 50 nM) was 0.96 ± 0.06, the “Smad4 expression (quantitative RT-PCR)” value (Smad4; 200 nM) was 1.03 ± 0.09 and the “Smad4 expression (quantitative RT-PCR)” value (Smad4; 500 nM) was 1.26 ± 0.09. For the same compound, the “Smad6 expression (quantitative RT-PCR)” value (Smad6; 50 nM) was 0.95 ± 0.05, the “Smad6 expression (quantitative RT-PCR)” value (Smad6; 200 nM) was 1.23 ± 0.14 and the “Smad6 expression (quantitative RT-PCR)” value (Smad6; 500 nM) was 1.77 ± 0.19. For the same compound, the “Smad7 expression (quantitative RT-PCR)” value (Smad7; 50 nM) was 1.05 ± 0.07, the “Smad7 expression (quantitative RT-PCR)” value (Smad7; 200 nM) was 1.32 ± 0.14 and the “Smad7 expression (quantitative RT-PCR)” value (Smad7; 500 nM) was 1.78 ± 0.18. For the same compound, the “TIMP-1 expression (quantitative RT-PCR)” value (TIMP-1; 50 nM) was 1.43 ± 0.19, the “TIMP-1 expression (quantitative RT-PCR)” value (TIMP-1; 200 nM) was 1.83 ± 0.18 and the “TIMP-1 expression (quantitative RT-PCR)” value (TIMP-1; 500 nM) was 3.00 ± 0.65. For the same compound, the “TIMP-2 expression (quantitative RT-PCR)” value (TIMP-2; 50 nM) was 1.24 ± 0.10, the “TIMP-2 expression (quantitative RT-PCR)” value (TIMP-2; 200 nM) was 1.67 ± 0.19 and the “TIMP-2 expression (quantitative RT-PCR)” value (TIMP-2; 500 nM) was 2.62 ± 0.29. The “MMP-9 expression (quantitative RT-PCR)” value (MMP-9; 50 nM) was 0.73 ± 0.16, the “MMP-9 expression (quantitative RT-PCR)” value (MMP-9; 200 nM) was 0.44 ± 0.12 and the “MMP-9 expression (quantitative RT-PCR)” value (MMP-9; 500 nM) was 0.26 ± 0.03. For the same compound, the “induction of chondrogenesis (metachromatic toluidine blue purple staining, proteoglycans)” value (newborn mouse calvaria) was “marked ability to induce chondrogenesis”, the “formation of collagen type II (COL2A1), red fluorescence” value [1] was “induce the formation of collagen type II” and the “induction of SOX9 (Western blot)” value (SOX9) was “clear induction”. The “induction of COL2A1 (Western blot)” value (COL2A1) was “clear induction” and the “induction of Aggrecan (Western blot)” value (Aggrecan) was “clear induction”.
